Results published in US9452177B2, “Vitamin D compounds and methods for reducing ocular hypertension (OHT)” (Wisconsin Alumni Research Foundation, priority 2008, dated 2016).
“Also recorded” adds a separate entry of the source.

Assays:
[1] = test system: eyes of ocular normotensive cynomolgus monkeys; test: Intraocular pressure (IOP) by Goldmann applanation tonometry after 5 twice-daily unilateral topical treatments; format: in vivo, cynomolgus monkeys (Macaca fascicularis); settings: for IOP less than at baseline prior to the 5th treatment: one eye, both treated and control eye; for IOP decrease prior to the fifth treatment on day 3: both eyes
Description: Ocular normotensive adult cynomolgus monkeys (Macaca fascicularis), of either sex, weighing 3-7 kg were anesthetized with i.m. ketamine HCl (3-25 mg/kg, supplemented with 1-10 mg/kg) for IOP and topical drop administration. All monkeys were free of any ocular abnormalities according to slit lamp biomicroscopy at the time measurements were taken. The monkeys were provided by the Primate Center at the University of Wisconsin-Madison. All experiments were done in accordance with the ARVO Statement on the Use of Animals in Ophthalmic and Vision Research.
The intraocular pressure (IOP) was determined with a “minified” Goldmann applanation tonometer [Kaufman, 1980] using HALF AND HALF™ creamer solution (Borden) as the tear film indicator [Croft, 1997] with the monkey lying prone in a head holder and the eyes positioned 4 to 8 cm above the heart. All monkeys were examined by slit-lamp before the first IOP measurement in each protocol. For each eye, two or three IOP measurements were averaged as a baseline.
(§1) Under ketamine anesthesia (KETAJECT™, Phoenix Pharmaceutical, St Joseph, Mo. (3-25 mg/kg i.m., supplemented with 1-10 mg/kg i.m. as needed) baseline IOP was determined, usually between 7:30 and 9 am (2 readings, 5 minutes apart; if IOP baseline measurements were not within 2-3 mm Hg of each other, a 3rd reading was taken 5 min later). Baseline IOP was at least 15 mmHg if possible. A baseline blood sample was taken from the femoral artery or vein, or sometimes the brachial vein (1-2 ml). This was allowed to clot and then spun down (3000 rpm for 10 min, Damon/IEC NH-SII centrifuge) and the serum removed and frozen at −20 C for no more than 1 week. Baseline systolic, diastolic and mean arterial pressure as well as heart rate were recorded with the Dinamap monitor from a cuff placed around the arm or the leg.
After baseline measurements, the monkey was place supine with the eye pointing up and the eyelid held open. A 5 μl drop of test material or vehicle was delivered to opposite eyes. The eyelid was held open for at least 30 sec and the eye was maintained in the upward position for an additional 30 sec. The monkey was then returned to its cage and allowed to wake up. In the afternoon, at least 6 hours after the morning treatment, another treatment was administered. On the second day, dosing was repeated in the am and pm.
On the 3th day, prior to the 5th treatment, baseline IOP, biomicroscopy and MAP were determined. Preliminary studies indicated an effect was observed after these treatments but not after a single treatment. Following the 5th dose, IOP was measured at 1, 2, 3, 4, 5, 6, 7, 8, 12 (if possible), 24, and sometimes 48 hr. Biomicroscopy was done at 1, 3, 6, 24 and sometimes 48 hr. MAP on day 3 (some protocols) was determined at 1, 2, 3, 4, 5, 6, 7, 8, 24 and sometimes 48 hr if possible. Blood samples after the 5th treatment were collected at 6, 24, and sometimes 48 hr. For some protocols, IOP was also measured prior to each treatment; MAP was measured prior to the morning treatment; blood was collected prior to the afternoon treatment. Subsequent screening protocols will not include the MAP and blood collections and will only measure IOP at baseline and prior to and for 1-6 hr after the 5th treatment.
Adult cynomolgus monkeys (Macaca fascicularis) of either sex were anesthetized with intramuscular ketamine HCl (10 mg/kg initial, 5 mg/kg supplemental). Baseline pretreatment IOP was determined by Goldmann applanation tonometry [Kaufman, 1980] with […] used as a tear film indicator [Croft, 1997]. Two baseline IOP measurements were taken 5 minutes apart. […]

[2] = Serum Ca2+ level after ocular topical applications; format: in vivo, cynomolgus monkeys (Macaca fascicularis); settings: 5 μg, 3 days, total 5 unilateral topical applications
Description: as §1
On the 3th day, prior to the 5th treatment, baseline IOP, biomicroscopy and MAP were determined. […] Following the 5th dose, IOP was measured at 1, 2, 3, 4, 5, 6, 7, 8, 12 (if possible), 24, and sometimes 48 hr. […] MAP on day 3 (some protocols) was determined at 1, 2, 3, 4, 5, 6, 7, 8, 24 and sometimes 48 hr if possible. […] For some protocols, IOP was also measured prior to each treatment; MAP was measured prior to the morning treatment; blood was collected prior to the afternoon treatment. […]

[3] = test system: eyes of cynomolgus monkeys; test: Aqueous humor formation rate by ocular scanning fluorophotometry; format: in vivo; settings: for AHF Rx/Baseline, Vitamin D eye / AHF Rx/Baseline, Vitamin D/Vehicle / AHF ratio Vitamin D/Vehicle after treatment / Aqueous humor formation (AHF), Vitamin D eye after treatment: 5 μg
Description: Ocular normotensive adult cynomolgus monkeys, of either sex, weighing 3-7 kg were anesthetized with i.m. ketamine HCl (3-25 mg/kg, supplemented with 1-10 mg/kg) for IOP, topical drop administration and aqueous humor flow measurements. All monkeys were free of any ocular abnormalities according to slit lamp biomicroscopy at the time measurements were taken. For outflow facility measurements, animals were given intravenous sodium pentobarbital (15 mg/kg, supplemented with 5-10 mg/kg) following i.m. ketamine induction.
Aqueous humor formation rate was determined by ocular scanning fluorophotometry (Fluorotron Master, OcuMetrics Inc, Mountain View, Calif.) as previously described [Rasmussen, 2007]. Fluorescein drops were administered at least 30 minutes after the fourth treatment (see above) with vitamin D or vehicle. On day 3, prior to the fifth treatment, IOP and biomicroscopy were done. Following the fifth treatment scans were taken hourly, beginning 1 hour after treatment, until 6 duplicates scans were collected. Baseline scans were collected for 6 hours within 2 weeks before and at least 2 weeks after the treatment study. Post treatment aqueous humor formation rates were compared to the average of the pre and post baseline scans and to the vehicle treated eyes by the paired t-test for ratios different from 1.0. There were 8 monkeys for each treatment group.
Aqueous humor formation was measured by fluorophotometry during the interval 1-6 hr after the 5th topical bid treatment with vitamin D or vehicle to opposite eyes (see Materials and Methods). Units for aqueous humor formation are μl/min. Data are Mean±Sem. Rx, treatment (Vitamin D or vehicle) n=6.

[4] = Example 3, 5 μg unilateral topical
[5] = Hours 1-3 after 5th topical bid treatment
[6] = Hours 1-6 after 5th topical bid treatment
[7] = Hours 4-6 after 5th topical bid treatment

SMILES: C=C1/C(=C\C=C2/CCC[C@]3(C)[C@@H]([C@H](C)CCCC(C)(C)O)CC[C@@H]23)C[C@@H](O)C[C@@H]1O [1,25-(OH)2D3, 1α,25-dihydroxyvitamin D3]
- IOP in treated eye compared with control eye ([1]; Example 1, 5 μg (2MD 6 μg) in 5 μl propylene glycol one eye, vehicle opposite eye): consistently, but not significantly less than in the control eye
- IOP less than at baseline prior to the 5th treatment ([1]; Example 1, 5 μg in 5 μl propylene glycol twice daily, n=8): 3-4 mmHg
- IOP less than at baseline prior to the 5th treatment ([1]; Example 1, 5 μg twice daily, n=8, p<0.05): ~17%
- time of gradual recovery of IOP toward baseline ([1]; Example 1, 5 μg, after 5th treatment): 24 to 48 h
- additional IOP decrease after the 5th treatment ([1]; Example 1, 5 μg, hr 1-4 after 5th dose): 1-2 mmHg
- total IOP reduction after the 5th treatment ([1]; Example 1, 5 μg, hr 1-4 after 5th dose, p<0.02): 20-30%
- strongest response, IOP decrease ([1]; Example 1, 5 uniocular topical treatments): up to 40%
- rank order of ocular hypotensive effect ([1]; Example 1, 5 uniocular topical treatments at the same dose): 1,25(OH)2D3>2MD>AGR
- effect on IOP ([1]; Example 3, 0.1 μg unilateral topical, either eye): did not have any significant effect on IOP in either eyes
- IOP reduction in control versus treated eyes ([1]; Example 3, 1 μg): stronger IOP reduction in the fellow control eyes than in the treated eyes
- IOP reduction (bilateral) ([1]; Example 3, 1 μg unilateral topical): 20%
- IOP difference between treated and control eyes ([1]; Example 3, 5 μg): no significant differences between the two eyes except for the time period of 12 h or longer
- IOP reduction, control eyes ([1]; Example 3, 5 μg in opposite eye): 27%
- IOP reduction, treated eye [1, 4]: 30%
- IOP decrease prior to the fifth treatment on day 3 [1, 4]: ~3 mmHg
- IOP decrease prior to the fifth treatment on day 3 ([1]; Example 3, 5 μg unilateral topical, p<0.05): approximately 20%
- time of return of IOP to near pretreatment baseline ([1]; Example 3, 5 μg, after fifth treatment): 48 h
- duration of IOP-lowering effect ([1]; topical application, nonhuman primates): more than 12 hours
- blood serum calcium levels [2]: did not change
- change in aqueous humor formation rate ([3]; 5 μg topical, compared to baseline or vehicle eye): no changes in the aqueous humor formation rates; also recorded: does not change the aqueous humor formation
- AHF Rx/Baseline, Vitamin D eye [3, 5]: 1.06 ± 0.10
- AHF Rx/Baseline, Vitamin D/Vehicle [3, 5]: 1.07 ± 0.06
- AHF ratio Vitamin D/Vehicle after treatment [3, 5]: 0.94 ± 0.05
- Aqueous humor formation (AHF), Vitamin D eye after treatment [3, 5]: 1.27 ± 0.08 µL/min
- AHF Rx/Baseline, Vitamin D eye [3, 6]: 1.14 ± 0.06
- AHF Rx/Baseline, Vitamin D/Vehicle [3, 6]: 1.10 ± 0.07
- AHF ratio Vitamin D/Vehicle after treatment [3, 6]: 1.01 ± 0.07
- Aqueous humor formation (AHF), Vitamin D eye after treatment [3, 6]: 1.53 ± 0.10 µL/min
- AHF Rx/Baseline, Vitamin D eye [3, 7]: 1.25 ± 0.09
- AHF Rx/Baseline, Vitamin D/Vehicle [3, 7]: 1.22 ± 0.16
- AHF ratio Vitamin D/Vehicle after treatment [3, 7]: 0.98 ± 0.10
- Aqueous humor formation (AHF), Vitamin D eye after treatment [3, 7]: 1.54 ± 0.14 µL/min
